The results in this text go back to article doi:10.1101/2024.09.04.610228v1 (bioRxiv, 2024).

For one assay, the target named is FOXO4 FHD (Homo sapiens, UniProt P98177). Nature of the assay: FPA competition assay. It is filed as binding. As to conditions: FPA competition analysis.
Assay [1] relates to FOXO4 foci in senescent A375 cells. The assay can be described thus: Immunofluorescence of FOXO4 foci in nuclei of senescent A375 cells. Format: cell-based, Human. Particulars: doxorubicin-induced senescent A375 cells; 30 μM CPP-CAND, 24 h; vs DMSO mock.
In a further assay the test system is caspase 3/7. Nature of the assay: Caspase 3/7 activity. Format: cell-based, Human. As to conditions: senescent A375 cells; 20 μM, 24 h.
For a further assay, the system named is A375 cells. Nature of the assay: MTS cell viability assay, dividing vs cisplatin. It is filed as cell-based, Human. As to conditions: dividing vs CDDP (4 µM)-induced senescent A375 cells.

Each structure is given as a SMILES string. Peptide text beside a SMILES is read from it.

Chain of FOXO4 FHD (P98177 95-195): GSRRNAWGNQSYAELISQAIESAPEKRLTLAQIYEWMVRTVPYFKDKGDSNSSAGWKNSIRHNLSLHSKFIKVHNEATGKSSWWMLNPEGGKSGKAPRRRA

Regarding `CC[C@H](C)[C@H](NC(=O)[C@H](C)NC(=O)[C@H](C)NC(=O)[C@@H]1CCCN1C(=O)[C@H](CO)NC(=O)[C@H](CC(C)C)NC(=O)[C@H](CCSC)NC(=O)[C@H](CC(C)C)NC(=O)[C@H](C)N)C(=O)N[C@@H](C)C(=O)N[C@@H](CCC(N)=O)C(=O)N[C@@H](Cc1c[nH]c2ccccc12)C(=O)N[C@@H](Cc1ccccc1)C(=O)N[C@H](C(=O)N[C@@H](C)C(=O)N[C@@H](C)C(=O)O)[C@@H](C)O` [CAND] (H-ALMLSPAAIAQWFTAA-OH; N-terminus and C-terminus assumed), the “Enhancement of inhibitory ability compared to p53 TAD PEP” value on FOXO4 FHD is “approximately three-fold”.
As to `CC[C@H](C)[C@H](NC(=O)[C@H](C)NC(=O)[C@H](C)NC(=O)[C@@H]1CCCN1C(=O)[C@H](CO)NC(=O)[C@H](CC(C)C)NC(=O)[C@H](CCSC)NC(=O)[C@H](CC(C)C)NC(=O)[C@H](C)NC(=O)[C@@H]1CCCN1C(=O)[C@@H]1CCCN1C(=O)[C@H](CCCNC(=N)N)NC(=O)[C@H](CCCNC(=N)N)NC(=O)[C@H](CCCNC(=N)N)NC(=O)[C@H](CCC(N)=O)NC(=O)[C@H](CCCNC(=N)N)NC(=O)[C@H](CCCNC(=N)N)NC(=O)[C@H](CCCCN)NC(=O)[C@H](CCCCN)NC(=O)[C@H](CCCNC(=N)N)NC(=O)CN)C(=O)N[C@@H](C)C(=O)N[C@@H](CCC(N)=O)C(=O)N[C@@H](Cc1c[nH]c2ccccc12)C(=O)N[C@@H](Cc1ccccc1)C(=O)N[C@H](C(=O)N[C@@H](C)C(=O)N[C@@H](C)C(=O)O)[C@@H](C)O` [CPP-CAND] (H-GRKKRRQRRRPPALMLSPAAIAQWFTAA-OH; N-terminus and C-terminus assumed), the “Reduction in number of FOXO4 foci in nuclei” value in assay [1] is reported as “approximately 7.1 fold”. For the same compound, the “Caspase 3/7 activity (percentage of green fluorescent cells), senescent cells” value in the assay with caspase 3/7 amounted to 44%. Also, the “SI75 (selectivity index from IC75 values)” value in the assay on A375 cells is recorded as “approximately 2.4”.
